Results from patent US20110281814A1, “METHODS AND COMPOSITIONS FOR TREATING BREAST CANCER” (Genzyme Corporation, priority 2009, published 2011).
Read-outs that look alike come from different tables or passages of the source.

Assays:
[1] = disclosed in PCT Pub. No. WO 00/045814; cited from earlier work
[2] = tested on: SDF-1α/CXCL12-mediated transactivation of HER2/neu; settings: MDA-MB-361 breast cancer cells, in vitro; Cabioglu et al. 2005; cited from earlier work
murine 4T1 cells = settings: Smith et al. 2004, cited from earlier work
MDA-MB-231 tumors [3] = settings: for potentiation of the effect of doxorubicin on tumor growth: three weeks from day 28, vs doxorubicin alone, FIG. 5
Experimental: Four groups of 6- to 8-week-old SCID mice (6 animals each) were injected subcutaneously with 1×10^6 MDA-MB-231 cells. At the start of dosing (about 28 days post-injection), the tumor volume was approximately 100 mm^3. Beginning approximately 28 days after the injection, Groups 2-4 were administered intraperitoneal injections of doxorubicin once a week (Monday) for three weeks at 2 mg/kg body weight.
The size of the tumors was measured approximately every six days, beginning on day 21 post-injection. Animals were euthanized when the tumor volume reached approximately 1000 mm^3. The time course of the average tumor volume is plotted for each experimental group in FIG. 5.

established 4T1 tumors = tested on: established 4T1 tumors
Text: The 4T1 cell line (available from the […], Manassas, Va.) was derived from a spontaneously arising BALB/c mammary tumor and is commonly used as a syngeneic mouse model of metastatic breast cancer. When introduced orthotopically, the 4T1 line grows rapidly at the primary site and forms metastases in lungs, liver, bone and brain over a period of 3-6 weeks. When introduced intravenously or arterially, metastases are apparent in the same organs after 1-2 weeks. The rapid and efficient metastasis to organs affected in human breast cancer makes the 4T1 model an excellent mouse model for the study of metastatic progression of breast cancer in humans.
Three groups of 6- to 8-week-old SCID mice (6 animals each) were injected subcutaneously with 2×10^5 4T1 cells. At the start of dosing (about 14 days post-injection), the tumor volume was approximately 100 mm^3.
The size of the tumors was measured approximately every four days, beginning on day 10 post-injection. Animals were euthanized when the tumor volume reached approximately 1000 mm^3. […] The time course of the average tumor volume is plotted for each experimental group in FIG. 4A.

MDA-MB-231 tumors [4] = tested on: MDA-MB-231 tumors
Experimental: Three groups of 6- to 8-week-old SCID mice (6 animals each) were injected subcutaneously with 2×10^6 MDA-MB-231 cells. At the start of dosing (about 14 days post-injection), the tumor volume was approximately 100 mm^3. Beginning approximately 14 days after the injection, Groups 2 and 3 were administered intraperitoneal injections of doxorubicin once a week (Monday) for the duration of the study at 1 mg/kg body weight.
The size of the tumors was measured approximately every three days, beginning on day 21 post-injection. Animals were euthanized when the tumor volume reached approximately 1000 mm^3. The time course of the average tumor volume is plotted for each experimental group in FIG. 6A.

[5] = tested on: established MDA-MB-231 tumors; settings: for rate of tumor growth: FIG. 3A; for mean survival (Kaplan-Meier): FIG. 3B
Experimental: Four groups of 6- to 8-week-old SCID mice (8 animals each) were injected subcutaneously with 1×10^6 MDA-MB-231 cells. At the start of dosing (about 21 days post-injection), the tumor volume was approximately 100 mm^3.
The size of the tumors was measured approximately every five days, beginning on day 21 post-injection. Animals were euthanized when the tumor volume reached approximately 1000 mm^3. The time course of the average tumor volume is plotted for each experimental group in FIG. 3A.

[6] = tested on: MDA-MB-231 human breast cancer cells admixed with human mesenchymal stem (MSC) cells; test: Efficacy of AMD3465 in MDA-MB-231+MSC breast cancer model (Example 1); format: in vivo, SCID mice; settings: vs PBS control, FIG. 1
Experimental: The MSC cells provide stromal support to the MDA-MB-231 cells and enhance tumor growth and metastasis via SDF-1α/CXCL12 and RANTES pathways.
Group 2 was given intraperitoneal injections of anti-human SDF-1α/CXCL12 monoclonal antibody three times a week (Monday, Wednesday and Friday) for six weeks at 100 μg per animal.

MDA-MB-231 cells = settings: AMD3465 5 or 10 mg/kg i.p. MWF from 7 days post-injection; absence of MSC cells; FIG. 2B
Experimental: (§1) Six groups of 6- to 8-week-old SCID mice (6 animals each) were injected subcutaneously with 1×10^6 MDA-MB-231 cells. Groups 4-6 were further injected with 1×10^6 MSC cells admixed with the MDA-MB-231 cells.
(§2) The size of the tumors was measured approximately every five days, beginning on day 15 post-injection. Animals were euthanized when the tumor volume reached approximately 1000 mm^3. The time course of the average tumor volume is plotted for each experimental group in FIGS. 2A and 2B.

[7] = tested on: MDA-MB-231 cells admixed with MSC cells; settings: presence of MSC cells, FIG. 2A
Experimental: as §1, §2

breast cancer = settings: mouse models of breast cancer; literature; cited from earlier work
[8] = AMD3100 […] + doxorubicin 2 mg/kg
[9] = AMD3100 1.25 mg/kg s.c. MWF for two weeks, FIG. 4A
[10] = AMD3100 […] + doxorubicin 1 mg/kg

Molecule: c1cc(CN2CCCNCCNCCCNCC2)ccc1CN1CCCNCCNCCCNCC1 [AMD3100]
- white blood cell count [1]: increasing the white blood cell count
- SDF-1α/CXCL12-mediated transactivation of HER2/neu [2]: inhibit
- growth onset of 4T1 cells in the lung (murine 4T1 cells): significantly delayed the growth onset
- overall survival (murine 4T1 cells; mice with experimental lung metastases): did not appear to improve overall survival
- potentiation of the effect of doxorubicin on tumor growth (MDA-MB-231 tumors [3]; AMD3100 1.25 mg/kg s.c. MWF + doxorubicin 2 mg/kg i.p. weekly): not at 1.25 mg/kg
- leveling off of tumor growth (MDA-MB-231 tumors [3]; [8]): leveled off by day 92 post-injection
- onset of tumor growth (MDA-MB-231 tumors [3]; [8]): delayed by several weeks
- potentiation of the effect of doxorubicin on tumor growth (MDA-MB-231 tumors [3]; AMD3100 […] s.c. MWF + doxorubicin 2 mg/kg i.p. weekly): potentiated the effect of 2 mg/kg doxorubicin on the tumor growth
- leveling off of tumor growth (established 4T1 tumors; [9]): largely leveled off by day 26 post-injection
- onset of tumor growth (established 4T1 tumors; [9]): delayed by approximately one week
- rate of tumor growth (established 4T1 tumors; [9]): significantly decreased the rate of tumor growth
- mean survival (Kaplan-Meier) (established 4T1 tumors; AMD3100 1.25 mg/kg, FIG. 4B): increased the mean survival
- leveling off of tumor growth (MDA-MB-231 tumors [4]; [10]): leveled off by day 50 post-injection
- onset of tumor growth (MDA-MB-231 tumors [4]; [10]): delayed by about two weeks
- rate of tumor growth compared to doxorubicin alone (MDA-MB-231 tumors [4]; [10]): significantly (p=0.04) decreased
- mean survival (Kaplan-Meier) compared to doxorubicin alone (MDA-MB-231 tumors [4]; AMD3100 […] + doxorubicin 1 mg/kg, FIG. 6B): significantly (p=0.07) increased the mean survival
- potentiation of the effect of doxorubicin on tumor growth (MDA-MB-231 tumors [4]; AMD3100 […] s.c. MWF + doxorubicin 1 mg/kg i.p. weekly, duration of study from day 14, FIG. 6A): significantly potentiated the effect of 1 mg/kg doxorubicin on the tumor growth

Molecule: c1ccc(CNCc2ccc(CN3CCCNCCNCCCNCC3)cc2)nc1 [AMD3465]
- rate of tumor growth ([5]; AMD3465 5 mg/kg i.p. MWF from about 21 days post-injection): not at 5 or 10 mg/kg
- mean survival (Kaplan-Meier) ([5]; AMD3465 5 mg/kg): not at 5 or 10 mg/kg
- rate of tumor growth ([5]; AMD3465 10 mg/kg i.p. MWF from about 21 days post-injection): not at 5 or 10 mg/kg
- mean survival (Kaplan-Meier) ([5]; AMD3465 10 mg/kg): not at 5 or 10 mg/kg
- rate of tumor growth ([6]; AMD3465 5 mg/kg i.p. MWF for six weeks from 48 hours post-injection): significantly (p=0.07) decreased the rate of tumor growth
- rate of tumor growth ([6]; AMD3465 10 mg/kg i.p. MWF for six weeks from 48 hours post-injection): not at 10 mg/kg
- rate of tumor growth (MDA-MB-231 cells): no statistically significant effect
- rate of tumor growth ([7]; AMD3465 5 mg/kg i.p. MWF from 7 days post-injection): significantly (p=0.024) decreased the rate of tumor growth
- rate of tumor growth ([7]; AMD3465 10 mg/kg i.p. MWF from 7 days post-injection): not at 10 mg/kg

Molecule: TN14003
- metastasis (breast cancer): reduce metastasis
- primary tumor growth (breast cancer): reduce primary tumor growth
